target: T1, human IDO1 (Homo sapiens, UniProt P14902); assay: Human IDO-1 inhibitory activity in Hela cells (interferon-gamma stimulated); assay type: cell-based; parameters: endogenous in cells; host or cells: HeLa cells stimulated with interferon-gamma; conditions: 18 hours, unstimulated wells = 100% inhibition
Description: HeLa cells were seeded at 20,000 cells per 30 μL per well with RPMI/phenol red free media containing 10% FBS in a 384-well tissue culture plate (black with clear bottoms). 50 nL of compound was added to cells and incubated at 37° C. for one hour. 20 μL of the recombinant human Interferon-gamma (R&D System, Cat. #285-IF, at final concentration of 10 ng/ml) or recombinant murine Interferon-gamma (PEPROTECH® Inc., Cat. #315-05, final concentration of 5 ng/ml) was added to activate IDO signaling. The cells were incubated for 18 hours in 37° C. incubator with 5% CO2.
Compound treatment was stopped by adding 5 μl trichloroacetic acid to a final concentration of 3%. Subsequently, the cell plate was further incubated at 50° C. for 30 minute. An equal volume supernatant (20 μL) and 2% (w/v) Ehrlich reagent (4-dimethylaminobenzaldehyde) in glacial acetic acid were mixed in a new clear bottom 384-well plate. This plate was incubated at room temperature for 30 minutes. Absorbance at 490 nm was measured on Envision plate reader.
Compound IC50 values were calculated using counts from unstimulated (no INF-gamma treatment) wells as 100% inhibition. INF-gamma treatment without compound treatment as 0% inhibition.

T1 sequence (P14902 whole entry): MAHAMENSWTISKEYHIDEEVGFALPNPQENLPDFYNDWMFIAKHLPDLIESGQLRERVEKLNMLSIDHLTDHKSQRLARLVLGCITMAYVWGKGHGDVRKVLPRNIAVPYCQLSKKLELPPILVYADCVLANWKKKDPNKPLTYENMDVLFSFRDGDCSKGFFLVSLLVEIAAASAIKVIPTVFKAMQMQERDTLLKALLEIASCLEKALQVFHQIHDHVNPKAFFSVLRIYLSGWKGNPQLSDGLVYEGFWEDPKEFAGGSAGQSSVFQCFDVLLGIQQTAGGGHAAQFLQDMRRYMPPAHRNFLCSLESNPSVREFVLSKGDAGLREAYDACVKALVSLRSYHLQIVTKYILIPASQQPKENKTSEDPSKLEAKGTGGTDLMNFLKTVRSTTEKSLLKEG

| Compound | IC50 [nM] |
| --- | --- |
| COCC(CC(=O)O)c1ccc(N2CCOC(C)(C)C2)c(NC(=O)Nc2ccc(Cl)cc2F)c1 (single isomer, unassigned) [Example 1318 E2, 3-(3-(3-(4-Chloro-2-fluorophenyl)ureido)-4-(2,2-dimethylmorpholino)phenyl)-4-methoxybutanoic Acid] | > 50 |
| CCC(CC(=O)O)c1ccc(N2CCOC(C)(C)C2)c(NC(=O)Nc2ccc(Cl)cc2F)c1 (single isomer, unassigned) [Example 1322 E2, 3-(3-(3-(4-Chloro-2-fluorophenyl)ureido)-4-(2,2-dimethylmorpholino)phenyl)pentanoic Acid] | > 50 |
| COC[C@@H](CC(=O)O)c1ccc(N2CCOc3ccccc32)c(Nc2ccc(C#N)cc2)c1 (single isomer, unassigned) [Example 1358] | > 50 |
| COC[C@H](CC(=O)O)c1ccc(N2CCOc3ccccc32)c(Nc2ccc(C#N)cc2)c1 (single isomer, unassigned) [Example 1359] | > 50 |
| (R)-3-(4-((1,1-dioxidotetrahydro- 2H-thiopyran-4-yl)(ethyl)amino)- 3-((2-ethoxypyrimidin-5- yl)amino)phenyl)-4- isopropoxybutanoic acid [Example 333] | > 50 |
| (R)-3-(4-((1,1-dioxidotetrahydro- 2H-thiopyran-4-yl)(ethyl)amino)- 3-((2-methoxypyrimidin-5- yl)amino)phenyl)-4- isopropoxybutanoic acid [Example 332] | > 50 |
| (R)-3-(4-(ethyl(tetrahydro-2H- pyran-4-yl)amino)-3-((2- (tetrahydro-2H-pyran-4- yl)pyrimidin-5-yl)amino) phenyl)-4-methoxybutanoic acid [Example 403] | > 50 |
| (S)-3-(4-((1,1-dioxidotetrahydro- 2H-thiopyran-4-yl)(ethyl)amino)- 3-((2-ethoxypyrimidin-5-yl)amino) phenyl)-4-isopropoxybutanoic acid [Example 328] | > 50 |
| (S)-3-(4-((1,1-dioxidotetrahydro- 2H-thiopyran-4-yl)(ethyl)amino)- 3-((2-methoxypyrimidin-5- yl)amino)phenyl)-4- isopropoxybutanoic acid [Example 327] | > 50 |
| (S)-3-(4-(ethyl(tetrahydro- 2H-pyran-4-yl)amino)-3-((2- (tetrahydro-2H-pyran-4- yl)pyrimidin-5-yl)amino) phenyl)-4-methoxybutanoic acid [Example 366] | > 50 |

Further lines, results first:

| IC50 [nM] | Compound |
| --- | --- |
| > 50 | CC(CC(=O)O)c1ccc(N2C[C@@H](C)O[C@@H](C)C2)c(NC(=O)Nc2ccc(Cl)cc2F)c1 (single isomer, unassigned) [Example 749 Enantiomer 2] |
| < 5 | CCN(c1cc(F)c(C(COC)CC(=O)O)cc1Nc1ccc(C#N)c(F)c1)C1CCOCC1 (single isomer, unassigned) [Example 853, 3-(5-((4-cyano-3-fluorophenyl)amino)-4-(ethyl(tetrahydro-2H-pyran-4-yl)amino)-2-fluorophenyl)-4-methoxybutanoic acid] |
| < 5 | CCN(c1cc(F)c(C(COC)CC(=O)O)cc1Nc1ccc(C#N)cc1F)C1CCOCC1 (single isomer, unassigned) [Example 854, 3-(5-((4-cyano-2-fluorophenyl)amino)-4-(ethyl(tetrahydro-2H-pyran-4-yl)amino)-2-fluorophenyl)-4-methoxybutanoic acid] |
| < 5 | CCC(CC(=O)O)c1ccc(N(CCOC)C2CCOCC2)c(Nc2ccc(Cl)cc2)c1 (single isomer, unassigned) [Example 1257 E2, 3-(3-((4-Chlorophenyl)amino)-4-((2-methoxyethyl)(tetrahydro-2H-pyran-4-yl)amino)phenyl)pentanoic Acid] |
| > 50 | CCC(CC(=O)O)c1ccc(N(CCOC)C2CCOCC2)c(NC(=O)Nc2ccc(C)cc2)c1 (single isomer, unassigned) [Example 1264 E2, 3-(4-((2-Methoxyethyl)(tetrahydro-2H-pyran-4-yl)amino)-3-(3-(p-tolyl)ureido)phenyl)pentanoic Acid] |
| > 50 | COCC(CC(=O)O)c1ccc(N2CCOC(C)C2)c(Nc2ccc(Cl)cc2)c1 (single isomer, unassigned) [Example 1311 D1, 3-(3-((4-Chlorophenyl)amino)-4-(2-methylmorpholino)phenyl)-4-methoxybutanoic Acid] |
| > 50 | COCC(CC(=O)O)c1ccc(N2CCOC(C)C2)c(NC(=O)Nc2ccc(Cl)cc2F)c1 (single isomer, unassigned) [Example 1314 D2, 3-(3-(3-(4-Chloro-2-fluorophenyl)ureido)-4-(2-methylmorpholino)phenyl)-4-methoxybutanoic Acid] |
| > 50 | COCC(CC(=O)O)c1ccc(N2CCOC(C)(C)C2)c(Nc2ccc(Cl)cc2)c1 (single isomer, unassigned) [Example 1315 E2, 3-(3-((4-Chlorophenyl)amino)-4-(2,2-dimethylmorpholino)phenyl)-4-methoxybutanoic Acid] |
| < 50 | CCC(CC(=O)O)c1ccc(N2CCOC(C)(C)C2)c(Nc2ccc(Cl)cc2)c1 (single isomer, unassigned) [Example 1319 E2, 3-(3-((4-Chlorophenyl)amino)-4-(2,2-dimethylmorpholino)phenyl)pentanoic Acid] |
| < 50 | CCN(c1ccc(C(COC(C)C)CC(=O)O)cc1Nc1ccc(F)cc1)C1CCS(=O)(=O)CC1 (centres unmarked) [Example 340] |
| < 5 | (R)-3-(3-((4-chlorophenyl)amino)- 4-((1,1-dioxidotetrahydro-2H- thiopyran-4-yl)(ethyl)amino) phenyl)-4-isopropoxybutanoic acid [Example 330] |
| < 50 | (R)-3-(3-((4-cyano-3- methylphenyl)amino)-4- (ethyl(tetrahydro-2H-pyran-4- yl)amino)phenyl)-4- methoxybutanoic acid [Example 391] |
| < 50 | (R)-3-(4-((1,1-dioxidotetrahydro- 2H-thiopyran-4-yl)(ethyl)amino)- 3-((4-fluorophenyl)amino)phenyl)- 4-isopropoxybutanoic acid [Example 331] |
| < 5 | (R)-3-(4-(ethyl(tetrahydro-2H- pyran-4-yl)amino)-3-((3- (1,1,2,2-tetrafluoroethoxy) phenyl)amino)phenyl)-4- methoxybutanoic acid [Example 398] |
| < 5 | (S)-3-(3-((4-chlorophenyl)amino)- 4-((1,1-dioxidotetrahydro-2H- thiopyran-4-yl)(ethyl)amino) phenyl)-4-isopropoxybutanoic acid [Example 325] |
| < 50 | (S)-3-(3-((4-cyano-3- ethoxyphenyl)amino)-4- (ethyl(tetrahydro-2H-pyran- 4-yl)amino)phenyl)-4- methoxybutanoic acid [Example 380] |
| < 50 | (S)-3-(4-((1,1-dioxidotetrahydro- 2H-thiopyran-4-yl)(ethyl)amino)- 3-((4-fluorophenyl)amino)phenyl)- 4-isopropoxybutanoic acid [Example 326] |

target: T1, human IDO1; assay: Human IDO-1 inhibitory activity in HEK cells (human IDO1/HEK293 cellular assay); assay type: cell-based; parameters: expressed in transfected cells; conditions: HEK human IDO-1 cellular assay; 500 nM reference standard = 100% inhibition, DMSO = 0%
Description: They were cultured in medium (DMEM with 10% FBS) containing 1 mg/ml G418 for two weeks.
The human IDO1/HEK293 cells were seeded at 10,000 cells per 50 μL per well with RPMI/phenol red free media contains 10% FBS in a 384-well black wall clear bottom tissue culture plate (Matrix Technologies LLC) 100 nL of certain concentration of compound was then added to each well using ECHO liquid handling systems. The cells were incubated for 20 hours in 37° C. incubator with 5% CO2.
The compound treatments were stopped by adding trichloroacetic acid (Sigma-Aldrich) to a final concentration at 0.2%. The cell plate was further incubated at 50° C. for 30 minute. The equal volume supernatant (20 μL) and 0.2% (w/v) Ehrlich reagent (4-dimethylaminobenzaldehyde, Sigma-Aldrich) in glacial acetic acid were mixed in a new clear bottom 384-well plate. This plate was then incubated at room temperature for 30 minute. The absorbance at 490 nm was measured on Envision plate reader.

| IC50 [nM] | Compound |
| --- | --- |
| < 50 | 3-(4-((1,1- dioxidotetrahydro-2H- thiopyran-4-yl)(ethyl) amino)-3-((4-fluorophenyl) amino)phenyl)-4- isopropoxybutanoic acid [Example 300] |
| < 50 | 3-(4-((1,1-dioxidotetrahydro-2H- thiopyran-4-yl)(ethyl)amino)-3-((4- fluorophenyl)amino)phenyl)-4- isopropoxybutanoic acid [Example 338] |
| < 5 | CCC(CC(=O)O)c1cc(F)c(N(CC(C)C)C2CCCCC2)c(NC(=O)Nc2ccc(Cl)cc2F)c1 (racemic) [Example 1090, 3-(3-(3-(4-chloro-2-fluorophenyl)ureido)-4-(cyclohexyl(isobutyl)amino)-5-fluorophenyl)pentanoic acid] |
| < 5 | CCC(CC(=O)O)c1ccc(N(CC)C2CCCOC2)c(Nc2ccc(Cl)cc2)c1 (single isomer, unassigned) [Example 60 E1, 3-(3-((4-Chlorophenyl)amino)-4-(ethyl(tetrahydro-2H-pyran-3-yl)amino)phenyl)pentanoic Acid] |
| < 50 | CC[C@H](CC(=O)O)c1ccc(N2CCOC[C@@H]2C(C)C)c(Nc2ccc(F)cc2)c1 (single isomer, unassigned) [Example 90] |

From patent publication US10399933B2, “Inhibitors of indoleamine-2,3-dioxygenase for the treatment of cancer” (BRISTOL-MYERS SQUIBB COMPANY, priority 2015, dated 2019)
